{"source": "patent US6861233B1", "about": "“Method of screening for triacyglycerol hydrolase inhibitors” (Glaxo Group Limited, priority 1999, dated 2005)", "key": {"[1]": {"molecular_target": "T1, lipoprotein lipase (LPL) from bovine milk (Bos taurus, UniProt P11151)", "T1 construct": "lipoprotein lipase (LPL) from bovine milk; from tissue; host or cells: bovine milk", "T1 sequence (P11151 29-478)": "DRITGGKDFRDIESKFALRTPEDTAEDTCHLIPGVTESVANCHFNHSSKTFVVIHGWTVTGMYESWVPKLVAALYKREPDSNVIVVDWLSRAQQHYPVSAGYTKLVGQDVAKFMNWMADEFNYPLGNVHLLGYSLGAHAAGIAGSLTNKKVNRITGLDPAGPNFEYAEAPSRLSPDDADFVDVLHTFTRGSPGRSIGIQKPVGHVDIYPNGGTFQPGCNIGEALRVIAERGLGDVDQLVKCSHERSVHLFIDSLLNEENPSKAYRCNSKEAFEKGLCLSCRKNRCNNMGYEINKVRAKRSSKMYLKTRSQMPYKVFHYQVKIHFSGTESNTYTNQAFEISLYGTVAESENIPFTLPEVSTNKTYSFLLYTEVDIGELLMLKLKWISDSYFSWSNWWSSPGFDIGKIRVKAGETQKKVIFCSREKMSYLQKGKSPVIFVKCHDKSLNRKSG", "test": "Effect of TGH inhibitors on lipoprotein lipase activity (radiolabelled trioleoylglycerol hydrolysis)", "assay_type": "biochemical", "settings": "tested at 5 μM, incubated with the enzyme 15-min prior to substrate", "procedure": "In order to evaluate the specificity of TGH inhibitors toward TGH, test compound was tested on the enzymatic activity of lipoprotein lipase (LPL) from bovine milk. For this purpose radiolabelled trioleoylglycerol (250 μM, specific activity 1 mCi/mmole) was emulsified in mixture of 10% gum arabic by sonication. Long-chain triacylglycerol hydrolysis was assayed in a final volume of 200 μl containing LPL (1.5 μg/ml), Tris (50 mM), pH 8.0; MgCl2 CaCl2 (1 mM), and 150 mM NaCl with 1 mg/ml BSA as a fatty acid acceptor for 30 min at 37° C. The reaction was terminated with the addition of 3.25 ml of methanol/chloroform/heptane (3.85:3.42:2.73 by volume); 0.3 ml of 150 mM NaCl, lipid carriers (100 μg of unlabelled oleic acid), and 50 μl of 1 N NaOH. The mixture was vortexed and centrifuged. One ml of the upper phase (containing the fatty acids that have been hydrolyzed) was mixed with 10 ml of Cytoscint and counted. Test compound is incubated with the enzyme 15 minutes prior to the addition of the substrate."}, "[2]": {"molecular_target": "T2, human liver TGH (Homo sapiens, UniProt P23141)", "T2 construct": "the enzyme from microsomal membranes of liver tissues was solubilised by the zwitterionic detergent; from tissue; host or cells: human liver (microsomal membranes)", "T2 sequence (P23141 21-567 limits assumed)": "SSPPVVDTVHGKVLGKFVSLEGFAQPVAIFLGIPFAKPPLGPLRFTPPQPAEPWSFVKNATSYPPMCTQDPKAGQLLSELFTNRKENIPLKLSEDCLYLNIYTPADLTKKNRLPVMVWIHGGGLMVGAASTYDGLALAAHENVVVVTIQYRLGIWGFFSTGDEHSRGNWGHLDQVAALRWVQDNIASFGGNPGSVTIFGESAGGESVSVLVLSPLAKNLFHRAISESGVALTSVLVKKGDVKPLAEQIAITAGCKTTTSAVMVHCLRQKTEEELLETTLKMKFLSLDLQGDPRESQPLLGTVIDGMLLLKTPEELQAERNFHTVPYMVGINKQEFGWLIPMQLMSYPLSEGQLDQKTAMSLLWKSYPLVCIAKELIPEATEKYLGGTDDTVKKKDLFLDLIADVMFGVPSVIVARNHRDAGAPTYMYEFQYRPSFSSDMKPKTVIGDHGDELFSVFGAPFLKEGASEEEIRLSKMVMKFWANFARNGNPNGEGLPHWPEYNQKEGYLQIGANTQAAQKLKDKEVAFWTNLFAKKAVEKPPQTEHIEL", "test": "Effect of test agents on human liver TGH (4-methylumbelliferyl butyrate fluorogenic substrate)", "assay_type": "biochemical", "settings": "purified human liver TGH 1.16 nM, 15-min pre-incubation, 4-MU-butyrate substrate; read-out: concentration which resulted in 50% inhibition of TGH", "procedure": "Human liver TGH was purified according to Lehner and Verger's protocol described for the porcine liver TGH [13). Briefly, the enzyme from microsomal membranes of liver tissues was solubilised by the zwitterionic detergent 3-[(3 cholamidopropyl)dimethylammonio]-1-propanesulfonate (CHAPS) and was purified to apparent homogeneity by sequential chromatography on Q-sepharose and hydroxyapatite.\nThe enzymatic activity of TGH was evaluated with the fluorogenic substrate 4-methylumbelliferyl butyrate (4-MU-butyrate). Briefly, 10 μl of a solution of 25 mM of 4-MU-butyrate in tetrahydrofuran was injected in 2 ml of a buffer containing Tris (20 mM), pH 8.0, EDTA (1 mM) and taurodeoxycholate (300 μM). TGH activity was assayed at 1.16 nM in a final volume of 100 μl. The compound was dissolved in DMSO to be tested at various concentrations (from 1 nM to 2 μM) and was incubated with the enzyme 15-min prior to the addition of 20 μl of the substrate, which gives the starting point of the enzymatic reaction. […]\nThe basal level of fluorescence of the substrate was evaluated in a reaction mixture of 70 μl of buffer, 10 μl of DMSO (at the appropriate dilution) and 20 μl of substrate, and was subtracted from each other data. Rates of lipolysis were determined from continuous increase in fluorescence intensity at 460 nm (Excitation: 355 nm)."}, "[3]": {"tested_on": "normal fed hamsters", "test": "Hypolipidemic activity of the TGH inhibitor in hamster", "assay_type": "in vivo", "settings": "oral, 25 mg/kg twice a day for 3 days", "procedure": "Ten normal fed hamsters were randomly allocated into 2 groups. Animals from one group were orally gavaged with a test TGH inhibitor in DMSOI Labrafil (10/90%), 25 mg/kg, twice a day for 3 days while the animals from the other group were gavaged with the solvent (DMSOI/abrafil) twice a day for 3 days. The animals were sacrificed 4 hours following the last administration and the plasma lipids and lipoproteins were analyzed.\nTotal cholesterol (TC) and triglyceride (TG) levels in plasma were determined enzymatically with reagents from Bio Merieux. VLDL/LDL lipoprotein fractions were separated from the HDL lipoproteins by gradient centrifugation (d=1.063). Cholesterol in the VLDL/LDL as well as in the HDL fraction was also determined using the Bio Merieux kit. Apolipoprotein B-100 (Apo-B100) in the VLDL/LDL fraction was visualized by using SDS-PAGE under reducing conditions using resolving gels containing a 5% to 12% gradient."}, "[4]": {"settings": "4 hours after last administration"}}}
{"smiles": "Cc1cccc(NN=C(C(=O)c2cccs2)C(=O)C(F)(F)F)c1", "note": "[4,4,4-trifluoro-2-[2-(3-methylphenyl)hydrazono]-1-(2-thienyl)butane-1,3-dione]", "values": [{"measurement": "effect on the enzymatic activity of LPL", "setting": "[1]", "result": "did not affect"}, {"measurement": "IC50", "setting": "[2]", "result": 4, "unit": "nM"}, {"measurement": "HDL cholesterol level", "setting": "[3]; [4]", "result": "not significantly affected"}, {"measurement": "reduction in VLDL/LDL cholesterol (from the solvent treated animals)", "setting": "[3]; [4]", "result": 40, "unit": "%"}, {"measurement": "reduction in the plasma TG concentration (from the solvent treated animals)", "setting": "[3]; [4]", "result": "−55", "unit": "%"}, {"measurement": "ApoB100 decrease compared to control animals", "setting": "[3]; VLDL/LDL fraction, SDS-PAGE", "result": "−39", "unit": "%"}]}
